The record followed here is ChEMBL document CHEMBL5096235, “In Silico Exploration and Biological Evaluation of Bispecific Peptides Derived from Anti-HER2 Antibodies and Peptide-Camptothecin Conjugates for HER2-Positive Breast Cancer” (J Med Chem, 2022).

SMILES strings stand for the structures. Active and inactive are the calls of the source. No cut-off for these calls is given here. Residues, ends and D or L forms follow the SMILES beside them.

In series [1] the target is Receptor tyrosine-protein kinase erbB-2 (Homo sapiens, UniProt P04626). Kind of series: Binding affinity to HER2 in HER-positive human SK-BR-3 cells assessed as increase in fluorescence intensity at 25 uM by Hoechst 33342 staining based confocal microscopic analysis. Type of series: cell-based.
Series [2] in a line: Drug uptake in tumor of nude mouse xenografted with HER2-positive human SK-BR-3 cells assessed as increase in fluorescence intensity at 25 uM, iv measured after 2 hrs by IVIS spectrum in vivo imaging analysis. Type of series: ADME, organism-based, Neoplasm. On the technique in general: A xenograft is tissue or cells of one species grown in another, often human tumour cells in immunodeficient mice.

Series [3] in a line: Toxicity in nude mouse xenografted with human SK-BR-3 cells assessed as effect on alkaline phosphatase level at 8 micromol/kg, iv administered every 3 days for 14 days. To be noted: in vivo, 336 h, dose 8 µmol/kg, time 14 day. Type of series: organism-based.
A short description of series [4]: Toxicity in nude mouse xenografted with human SK-BR-3 cells assessed as inflammatory cell infiltration at 8 micromol/kg, iv administered every 3 days for 14 days by H and E staining based analysis. The following applies: in vivo, 336 h, dose 8 µmol/kg, time 14 day. The format is organism-based.
Series [5] is described as follows: Toxicity in nude mouse xenografted with human SK-BR-3 cells assessed as liver damage at 8 micromol/kg, iv administered every 3 days for 14 days by H and E staining based analysis. Type of series: organism-based. The following applies: in vivo, 336 h, dose 8 µmol/kg, time 14 day.
Series [6] is described as follows: Toxicity in nude mouse xenografted with human SK-BR-3 cells assessed as spleen damage at 8 micromol/kg, iv administered every 3 days for 14 days by H and E staining based analysis. Type of series: organism-based. The following applies: in vivo, 336 h, dose 8 µmol/kg, time 14 day.
Series [7] has as its system SK-BR-3. Description: Cytotoxicity against HER-positive human SK-BR-3 cells assessed as inhibition of cell growth incubated for 48 hrs by MTT assay. The format is functional, cell-based. To be noted: SK-BR-3, 48 h. In general terms: Formazan colour is commonly taken as a measure of viable cells.
Series [8] is described as follows: Toxicity in nude mouse xenografted with human SK-BR-3 cells assessed as effect on globulin level at 8 micromol/kg, iv administered every 3 days for 14 days. To be noted: in vivo, 336 h, dose 8 µmol/kg, time 14 day. The format is organism-based.
The test system of series [9] is SK-BR-3. Description: Induction of apoptosis in human SK-BR-3 cells assessed as dead cells incubated for 24 hrs by Annexin V-FITC/PI staining based flow cytometry analysis (Rvb= 1.21%). Type of series: functional. Background: Flow cytometry measures light scatter and fluorescence of single cells or particles in a stream.
A short description of series [10]: Toxicity in nude mouse xenografted with human SK-BR-3 cells assessed as effect on total protein level at 8 micromol/kg, iv administered every 3 days for 14 days. Type of series: organism-based. To be noted: in vivo, 336 h, dose 8 µmol/kg, time 14 day.
Series [11] in a line: Toxicity in nude mouse xenografted with human SK-BR-3 cells assessed as cellular necrosis at 8 micromol/kg, iv administered every 3 days for 14 days by H and E staining based analysis. The format is organism-based. The following applies: in vivo, 336 h, dose 8 µmol/kg, time 14 day.
In a further series the test system is NCI-N87. Description: Cytotoxicity against HER-positive human NCI-N87 cells assessed as inhibition of cell growth incubated for 48 hrs by MTT assay. Type of series: functional, cell-based. The following applies: NCI-N87, 48 h.
The subject of series [12] is SK-BR-3. Kind of series: Induction of apoptosis in human SK-BR-3 cells assessed as late apoptotic cells incubated for 24 hrs by Annexin V-FITC/PI staining based flow cytometry analysis (Rvb= 5.02%). Type of series: functional.
For series [13], the system named is SK-BR-3. Kind of series: Induction of cell cycle arrest in human SK-BR-3 cells assessed as accumulation of cells at S phase incubated for 24 hrs by flow cytometry analysis (reference value: 23%). The format is functional.
The next series has as its system MDA-MB-231. Description: Cytotoxicity against HER-negative human MDA-MB-231 cells assessed as inhibition of cell growth incubated for 48 hrs by MTT assay. The format is functional, cell-based. To be noted: MDA-MB-231, 48 h.
Series [14] in a line: Cytotoxicity against human MCF-10A cells assessed as inhibition of cell growth incubated for 48 hrs by MTT assay. The format is toxicity, cell-based.
A further series concerns SK-OV-3. Kind of series: Cytotoxicity against HER-positive human SK-OV-3 cells assessed as inhibition of cell growth incubated for 48 hrs by MTT assay. To be noted: SK-OV-3, 48 h. The format is functional, cell-based.
Series [15] deals with SK-BR-3. Description: Induction of apoptosis in human SK-BR-3 cells assessed as live cells incubated for 24 hrs by Annexin V-FITC/PI staining based flow cytometry analysis (Rvb= 89.4%). The format is functional.
The nature of series [16]: Toxicity in nude mouse xenografted with human SK-BR-3 cells assessed as heart damage at 8 micromol/kg, iv administered every 3 days for 14 days by H and E staining based analysis. The format is organism-based. To be noted: in vivo, 336 h, dose 8 µmol/kg, time 14 day.
Series [17] concerns SK-BR-3. Kind of series: Induction of apoptosis in human SK-BR-3 cells assessed as early apoptotic cells incubated for 24 hrs by Annexin V-FITC/PI staining based flow cytometry analysis (Rvb= 4.37%). The format is functional.
Series [18] is described as follows: Toxicity in nude mouse xenografted with human SK-BR-3 cells assessed as effect on creatinine level at 8 micromol/kg, iv administered every 3 days for 14 days. Type of series: organism-based. The following applies: in vivo, 336 h, dose 8 µmol/kg, time 14 day.
The nature of series [19]: Toxicity in nude mouse xenografted with human SK-BR-3 cells assessed as effect on albumin level at 8 micromol/kg, iv administered every 3 days for 14 days. Type of series: organism-based. The following applies: in vivo, 336 h, dose 8 µmol/kg, time 14 day.
A short description of series [20]: Toxicity in nude mouse xenografted with human SK-BR-3 cells assessed as lung damage at 8 micromol/kg, iv administered every 3 days for 14 days by H and E staining based analysis. Type of series: organism-based. The following applies: in vivo, 336 h, dose 8 µmol/kg, time 14 day.
Series [21] can be described thus: Toxicity in nude mouse xenografted with human SK-BR-3 cells assessed as kidney damage at 8 micromol/kg, iv administered every 3 days for 14 days by H and E staining based analysis. The format is organism-based. The following applies: in vivo, 336 h, dose 8 µmol/kg, time 14 day.

Chain of Receptor tyrosine-protein kinase erbB-2 (P04626 whole entry): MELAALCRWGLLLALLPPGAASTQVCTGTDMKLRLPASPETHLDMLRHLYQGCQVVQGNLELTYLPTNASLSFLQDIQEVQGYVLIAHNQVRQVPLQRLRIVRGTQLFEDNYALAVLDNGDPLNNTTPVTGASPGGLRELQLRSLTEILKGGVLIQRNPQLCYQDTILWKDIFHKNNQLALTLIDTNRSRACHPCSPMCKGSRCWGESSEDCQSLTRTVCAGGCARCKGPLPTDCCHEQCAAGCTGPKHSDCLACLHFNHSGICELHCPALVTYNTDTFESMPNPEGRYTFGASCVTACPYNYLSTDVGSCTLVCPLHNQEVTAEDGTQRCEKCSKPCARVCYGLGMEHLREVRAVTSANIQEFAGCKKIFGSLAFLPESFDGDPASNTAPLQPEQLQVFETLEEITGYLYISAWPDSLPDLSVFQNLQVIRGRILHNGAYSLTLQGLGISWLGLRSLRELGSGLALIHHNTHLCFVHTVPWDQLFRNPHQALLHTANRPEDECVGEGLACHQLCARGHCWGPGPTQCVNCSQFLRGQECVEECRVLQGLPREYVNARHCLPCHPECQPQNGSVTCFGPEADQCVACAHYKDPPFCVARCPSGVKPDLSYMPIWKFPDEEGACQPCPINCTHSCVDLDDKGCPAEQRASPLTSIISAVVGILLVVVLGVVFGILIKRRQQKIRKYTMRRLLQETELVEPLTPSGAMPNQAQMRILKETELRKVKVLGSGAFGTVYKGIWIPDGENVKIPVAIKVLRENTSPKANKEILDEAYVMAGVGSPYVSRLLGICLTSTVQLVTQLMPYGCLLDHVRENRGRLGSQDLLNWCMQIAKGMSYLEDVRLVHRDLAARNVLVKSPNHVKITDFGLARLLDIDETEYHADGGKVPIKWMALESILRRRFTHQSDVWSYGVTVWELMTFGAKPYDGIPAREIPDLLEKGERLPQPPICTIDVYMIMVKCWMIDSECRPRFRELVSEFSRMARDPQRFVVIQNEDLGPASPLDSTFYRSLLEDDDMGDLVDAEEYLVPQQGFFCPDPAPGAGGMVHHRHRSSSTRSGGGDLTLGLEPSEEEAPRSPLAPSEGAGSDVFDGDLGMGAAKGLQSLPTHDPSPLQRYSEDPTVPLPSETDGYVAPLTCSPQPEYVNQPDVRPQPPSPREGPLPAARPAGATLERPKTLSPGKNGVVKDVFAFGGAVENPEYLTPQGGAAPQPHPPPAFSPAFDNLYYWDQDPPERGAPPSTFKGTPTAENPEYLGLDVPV

As for `CC[C@H](C)[C@H](NC(=O)[C@H](CCCNC(=N)N)NC(=O)CNC(=O)[C@H](CS)NC(=O)CNC(=O)[C@H](CCCCN)NC(=O)[C@H](Cc1ccccc1)NC(=O)[C@H](CCCNC(=N)N)NC(=O)[C@H](CCC(N)=O)NC(=O)[C@H](CC(N)=O)NC(=O)[C@H](Cc1ccc(O)cc1)NC(=O)[C@H](Cc1c[nH]c2ccccc12)NC(=O)[C@H](CO)NC(=O)[C@H](CCCNC(=N)N)NC(=O)CNC(=O)[C@H](Cc1c[nH]c2ccccc12)NC(=O)[C@H](CC(N)=O)NC(=O)[C@@H]1CCCN1C(=O)[C@@H](N)CC(=O)NC(=S)Nc1ccc2c(c1)C(=O)OC21c2ccc(O)cc2Oc2cc(O)ccc21)C(=O)N[C@@H](CCCCN)C(=O)N1CCC[C@H]1C(=O)N[C@@H](CCCNC(=N)N)C(=O)N[C@@H](CCCCN)C(=O)NCC(=O)N[C@@H](Cc1ccc(O)cc1)C(=O)N[C@H](C(=O)N[C@@H](CCCNC(=N)N)C(=O)O)[C@@H](C)O` (HELM PEPTIDE1{D.P.N.W.G.R.S.W.Y.N.Q.R.F.K.G.C.G.R.I.K.P.R.K.G.Y.T.R}|CHEM1{[O=C1OC2(c3ccc(O)cc3Oc3cc(O)ccc32)c2ccc(NC(=S)N[*:1])cc21]}$PEPTIDE1,CHEM1,1:R3-1:R1$$$V2.0), the result in [1] was Active. In addition, in [2], the Drug uptake result is listed as “Active”.

Usually IC50 stands for the concentration at which inhibition is half-maximal. `CC[C@@]1(O)C(=O)OCc2c1cc1n(c2=O)Cc2cc3ccccc3nc2-1` [CAMPTOTHECIN]: the Activity entry in [3] is reported as “Non-Toxic”; in series [4], “Non-Toxic”; in [5] it was “Non-Toxic”; in [6] it was “Non-Toxic”; in [8], “Non-Toxic”; in the series on SK-BR-3 [9], 0.35%. Also, the Activity result is listed as “Non-Toxic” in series [10]; “Non-Toxic” in series [11]; 12.3% with SK-BR-3 [12]; 50.8% in the series with SK-BR-3 [13]; 48.8% with SK-BR-3 [15]; “Non-Toxic” in series [16]. Moreover, the Activity in the series on SK-BR-3 [17] is listed as 38.6%; in series [18], “Non-Toxic”; in series [19] it was “Non-Toxic”; in series [20], “Non-Toxic”; in [21], “Non-Toxic”. The IC50 with SK-BR-3 [7] amounted to 210 nM; in the series on NCI-N87, 2320 nM; in the series with MDA-MB-231, 1060 nM; in the series on SK-OV-3 it was 3820 nM. Moreover, in series [14], the half-maximal inhibitory concentration (IC50) at 48 h worked out at 2580 nM.
